Source: patent publication US20100099561A1, “HETEROBICYCLIC ALKYLTHIO-BRIDGED ISOXAZOLINES” (E.I. DU PONT DE NEMOURS AND COMPANY, priority 2008, published 2010)

How the values were obtained:
Type in all cases: in vivo
[1] = test system: velvetleaf (Abutilon theophrasti); test: Test A preemergence, velvetleaf; conditions: 0 to 100 scale (0 no effect, 100 complete control)
Method in brief: (§1)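 Sow seeds in loam–sand blend; spray soil directly (pre) and treat emerged one- to two-leaf plants 2–10 cm tall (post) with compound in surfactant-containing non-phytotoxic solvent. Keep in greenhouse about ten days. Score injury visually against controls from 0 to 100.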

[2] = test system: giant foxtail (Setaria faberi); test: Test A preemergence, giant foxtail; conditions: 0 to 100 scale (0 no effect, 100 complete control)
Method in brief: as §1

[3] = test system: morningglory (Ipomoea spp.); test: Test A postemergence, morningglory; conditions: 0 to 100 scale (0 no effect, 100 complete control)
Method in brief: as §1

[4] = test system: barnyardgrass (Echinochloa crus-galli); test: Test B flooded paddy test, barnyardgrass; conditions: Flood
Method in brief: (§2)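 Step one: raise plants to 2 leaves. Step two: flood pots 3 cm over the soil and apply compound into the water, keeping this depth. Step three: after 13–15 greenhouse days, score visually versus controls, 0–100, where 100 means complete control.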

[5] = test system: giant foxtail (Setaria faberi); test: Test A postemergence, giant foxtail; conditions: 0 to 100 scale (0 no effect, 100 complete control)
Method in brief: as §1

[6] = test system: pigweed (Amaranthus retroflexus); test: Test A preemergence, pigweed; conditions: 0 to 100 scale (0 no effect, 100 complete control)
Method in brief: as §1

[7] = test system: umbrella sedge (Cyperus difformis); test: Test B flooded paddy test, umbrella sedge; conditions: Flood, scale 0 to 100
Method in brief: as §2

[8] = test system: wheat (Triticum aestivum); test: Test A postemergence, wheat; conditions: 0 to 100 scale (0 no effect, 100 complete control)
Method in brief: as §1

[9] = test system: pigweed (Amaranthus retroflexus); test: Test A postemergence, pigweed; conditions: 0 to 100 scale (0 no effect, 100 complete control)
Method in brief: as §1

[10] = test system: morningglory (Ipomoea spp.); test: Test A preemergence, morningglory; conditions: 0 to 100 scale (0 no effect, 100 complete control)
Method in brief: as §1

[11] = test system: barnyardgrass (Echinochloa crus-galli); test: Test A postemergence, barnyardgrass; conditions: 0 to 100 scale (0 no effect, 100 complete control)
Method in brief: as §1

rice (Oryza sativa) = test: Test B flooded paddy test, rice; conditions: Flood, scale 0 to 100
Method in brief: as §2

corn (Zea mays) [12] = test: Test A postemergence, corn; conditions: 0 to 100 scale (0 no effect, 100 complete control)
Method in brief: as §1

[13] = test system: velvetleaf (Abutilon theophrasti); test: Test A postemergence, velvetleaf; conditions: 0 to 100 scale (0 no effect, 100 complete control)
Method in brief: as §1

[14] = test system: large crabgrass (Digitaria sanguinalis); test: Test A postemergence, large crabgrass; conditions: 0 to 100 scale (0 no effect, 100 complete control)
Method in brief: as §1

[15] = test system: barnyardgrass (Echinochloa crus-galli); test: Test A preemergence, barnyardgrass; conditions: 0 to 100 scale (0 no effect, 100 complete control)
Method in brief: as §1

[16] = test system: ducksalad (Heteranthera limosa); test: Test B flooded paddy test, ducksalad; conditions: Flood, scale 0 to 100
Method in brief: as §2

[17] = test system: large crabgrass (Digitaria sanguinalis); test: Test A preemergence, large crabgrass; conditions: 0 to 100 scale (0 no effect, 100 complete control)
Method in brief: as §1

[18] = test system: wheat (Triticum aestivum); test: Test A preemergence, wheat; conditions: 0 to 100 scale (0 no effect, 100 complete control)
Method in brief: as §1

corn (Zea mays) [19] = test: Test A preemergence, corn; conditions: 0 to 100 scale (0 no effect, 100 complete control)
Method in brief: as §1

[20] = 250 g ai/ha, scale 0 to 100 (0 no effect, 100 complete control)

CCn1c(=O)c(CS(=O)(=O)C2=NOC(C)(C)C2)nc2ccccc21 [Compound 28]
Plant response rating, Velvetleaf ([1]; 125 g ai/ha): 0 | Plant response rating, Velvetleaf ([1]; 500 g ai/ha): 0 | Plant response rating, Foxtail, Giant ([2]; 125 g ai/ha): 0 | Plant response rating, Foxtail, Giant ([2]; 500 g ai/ha): 20 | Plant response rating, Morningglory ([3]; 125 g ai/ha): 0 | Plant response rating, Morningglory ([3]; 500 g ai/ha): 0 | Plant response rating, Barnyardgrass ([4]; 31 g ai/ha, scale 0 to 100): 0 | Plant response rating, Barnyardgrass ([4]; 62 g ai/ha, scale 0 to 100): 0 | Plant response rating, Barnyardgrass ([4]; 125 g ai/ha, scale 0 to 100): 0 | Plant response rating, Barnyardgrass [4, 20]: 0 | Plant response rating, Foxtail, Giant ([5]; 125 g ai/ha): 0 | Plant response rating, Foxtail, Giant ([5]; 500 g ai/ha): 0 | Plant response rating, Pigweed ([6]; 125 g ai/ha): 0 | Plant response rating, Pigweed ([6]; 500 g ai/ha): 0 | Plant response rating, Sedge, Umbrella ([7]; 31 g ai/ha): 0 | Plant response rating, Sedge, Umbrella ([7]; 62 g ai/ha): 0 | Plant response rating, Sedge, Umbrella ([7]; 125 g ai/ha): 0 | Plant response rating, Sedge, Umbrella ([7]; 250 g ai/ha): 0 | Plant response rating, Wheat ([8]; 125 g ai/ha): 0 | Plant response rating, Wheat ([8]; 500 g ai/ha): 0 | Plant response rating, Pigweed ([9]; 125 g ai/ha): 0 | Plant response rating, Pigweed ([9]; 500 g ai/ha): 0 | Plant response rating, Morningglory ([10]; 125 g ai/ha): 0 | Plant response rating, Morningglory ([10]; 500 g ai/ha): 0 | Plant response rating, Barnyardgrass ([11]; 125 g ai/ha): 30 | Plant response rating, Barnyardgrass ([11]; 500 g ai/ha): 40 | Plant response rating, Rice (rice (Oryza sativa); 31 g ai/ha): 0 | Plant response rating, Rice (rice (Oryza sativa); 62 g ai/ha): 0 | Plant response rating, Rice (rice (Oryza sativa); 125 g ai/ha): 0 | Plant response rating, Rice (rice (Oryza sativa); 250 g ai/ha): 0 | Plant response rating, Corn (corn (Zea mays) [12]; 125 g ai/ha): 0 | Plant response rating, Corn (corn (Zea mays) [12]; 500 g ai/ha): 0 | Plant response rating, Velvetleaf ([13]; 125 g ai/ha): 0 | Plant response rating, Velvetleaf ([13]; 500 g ai/ha): 0 | Plant response rating, Crabgrass, Large ([14]; 125 g ai/ha): 0 | Plant response rating, Crabgrass, Large ([14]; 500 g ai/ha): 50 | Plant response rating, Barnyardgrass ([15]; 125 g ai/ha): 0 | Plant response rating, Barnyardgrass ([15]; 500 g ai/ha): 10 | Plant response rating, Ducksalad ([16]; 31 g ai/ha): 0 | Plant response rating, Ducksalad ([16]; 62 g ai/ha): 0 | Plant response rating, Ducksalad ([16]; 125 g ai/ha): 0 | Plant response rating, Ducksalad ([16]; 250 g ai/ha): 0 | Plant response rating, Crabgrass, Large ([17]; 125 g ai/ha): 40 | Plant response rating, Crabgrass, Large ([17]; 500 g ai/ha): 50 | Plant response rating, Wheat ([18]; 125 g ai/ha): 0 | Plant response rating, Wheat ([18]; 500 g ai/ha): 0 | Plant response rating, Corn (corn (Zea mays) [19]; 125 g ai/ha): 0 | Plant response rating, Corn (corn (Zea mays) [19]; 500 g ai/ha): 0

CC1(C)CC([S+]([O-])Cc2c(C(F)(F)C(F)(F)F)nc3n(c2=O)CCCS3)=NO1 (stereo not drawn) [Compound 40]
Plant response rating, Velvetleaf ([1]; 125 g ai/ha): 0 | Plant response rating, Velvetleaf ([1]; 500 g ai/ha): 0 | Plant response rating, Foxtail, Giant ([2]; 125 g ai/ha): 0 | Plant response rating, Foxtail, Giant ([2]; 500 g ai/ha): 80 | Plant response rating, Morningglory ([3]; 125 g ai/ha): 0 | Plant response rating, Morningglory ([3]; 500 g ai/ha): 10 | Plant response rating, Barnyardgrass ([4]; 31 g ai/ha, scale 0 to 100): 0 | Plant response rating, Barnyardgrass ([4]; 62 g ai/ha, scale 0 to 100): 0 | Plant response rating, Barnyardgrass ([4]; 125 g ai/ha, scale 0 to 100): 0 | Plant response rating, Barnyardgrass [4, 20]: 0 | Plant response rating, Foxtail, Giant ([5]; 125 g ai/ha): 0 | Plant response rating, Foxtail, Giant ([5]; 500 g ai/ha): 50 | Plant response rating, Pigweed ([6]; 125 g ai/ha): 0 | Plant response rating, Pigweed ([6]; 500 g ai/ha): 0 | Plant response rating, Sedge, Umbrella ([7]; 31 g ai/ha): 0 | Plant response rating, Sedge, Umbrella ([7]; 62 g ai/ha): 0 | Plant response rating, Sedge, Umbrella ([7]; 125 g ai/ha): 0 | Plant response rating, Sedge, Umbrella ([7]; 250 g ai/ha): 0 | Plant response rating, Wheat ([8]; 125 g ai/ha): 0 | Plant response rating, Wheat ([8]; 500 g ai/ha): 50 | Plant response rating, Pigweed ([9]; 125 g ai/ha): 0 | Plant response rating, Pigweed ([9]; 500 g ai/ha): 0 | Plant response rating, Morningglory ([10]; 125 g ai/ha): 0 | Plant response rating, Morningglory ([10]; 500 g ai/ha): 0 | Plant response rating, Barnyardgrass ([11]; 125 g ai/ha): 10 | Plant response rating, Barnyardgrass ([11]; 500 g ai/ha): 70 | Plant response rating, Rice (rice (Oryza sativa); 31 g ai/ha): 0 | Plant response rating, Rice (rice (Oryza sativa); 62 g ai/ha): 0 | Plant response rating, Rice (rice (Oryza sativa); 125 g ai/ha): 0 | Plant response rating, Rice (rice (Oryza sativa); 250 g ai/ha): 0 | Plant response rating, Corn (corn (Zea mays) [12]; 125 g ai/ha): 0 | Plant response rating, Corn (corn (Zea mays) [12]; 500 g ai/ha): 20 | Plant response rating, Velvetleaf ([13]; 125 g ai/ha): 0 | Plant response rating, Velvetleaf ([13]; 500 g ai/ha): 0 | Plant response rating, Crabgrass, Large ([14]; 125 g ai/ha): 0 | Plant response rating, Crabgrass, Large ([14]; 500 g ai/ha): 40 | Plant response rating, Barnyardgrass ([15]; 125 g ai/ha): 0 | Plant response rating, Barnyardgrass ([15]; 500 g ai/ha): 60 | Plant response rating, Ducksalad ([16]; 31 g ai/ha): 0 | Plant response rating, Ducksalad ([16]; 62 g ai/ha): 0 | Plant response rating, Ducksalad ([16]; 125 g ai/ha): 0 | Plant response rating, Ducksalad ([16]; 250 g ai/ha): 0 | Plant response rating, Crabgrass, Large ([17]; 125 g ai/ha): 0 | Plant response rating, Crabgrass, Large ([17]; 500 g ai/ha): 70 | Plant response rating, Wheat ([18]; 125 g ai/ha): 0 | Plant response rating, Wheat ([18]; 500 g ai/ha): 0 | Plant response rating, Corn (corn (Zea mays) [19]; 125 g ai/ha): 0 | Plant response rating, Corn (corn (Zea mays) [19]; 500 g ai/ha): 0
